In brackets after ≈: the same amount, converted by molar mass.
Assays:
Escherichia coli [1] = experiment: Antibacterial activity against Escherichia coli RCMB 010052 after 24 to 48 hrs by agar well diffusion method; type: functional
Candida albicans [2] = experiment: Antifungal activity against Candida albicans RCMB 005036 assessed as diameter of inhibition zone at 1 mg/mL after 24 to 48 hrs by agar well diffusion method; type: functional; conditions: read-out: DIZ
Streptococcus pneumoniae [3] = experiment: Antibacterial activity against Streptococcus pneumoniae RCMB 010010 after 24 to 48 hrs by agar well diffusion method; type: functional
Candida albicans [4] = experiment: Antifungal activity against Candida albicans RCMB 005036 after 24 to 48 hrs by agar well diffusion method; type: functional
Streptococcus pneumoniae [5] = experiment: Antibacterial activity against Streptococcus pneumoniae RCMB 010010 assessed as diameter of inhibition zone at 1 mg/mL after 24 to 48 hrs by agar well diffusion method; type: functional; conditions: read-out: DIZ
Bacillus subtilis [6] = experiment: Antibacterial activity against Bacillus subtilis RCMB 010067 after 24 to 48 hrs by agar well diffusion method; type: functional
Aspergillus fumigatus [7] = experiment: Antifungal activity against Aspergillus fumigatus RCMB 002568 after 24 to 48 hrs by agar well diffusion method; type: functional
Escherichia coli [8] = experiment: Antibacterial activity against Escherichia coli RCMB 010052 assessed as diameter of inhibition zone at 1 mg/mL after 24 to 48 hrs by agar well diffusion method; type: functional; conditions: read-out: DIZ
Pseudomonas aeruginosa [9] = experiment: Antibacterial activity against Pseudomonas aeruginosa RCMB 010043 assessed as diameter of inhibition zone at 1 mg/mL after 24 to 48 hrs by agar well diffusion method; type: functional; conditions: read-out: DIZ
Aspergillus fumigatus [10] = experiment: Antifungal activity against Aspergillus fumigatus RCMB 002568 assessed as diameter of inhibition zone at 1 mg/mL after 48 hrs by agar well diffusion method; type: functional; conditions: RCMB 002568, 48 h, read-out: DIZ
Bacillus subtilis [11] = experiment: Antibacterial activity against Bacillus subtilis RCMB 010067 assessed as diameter of inhibition zone at 1 mg/mL after 24 to 48 hrs by agar well diffusion method; type: functional; conditions: read-out: DIZ
[12] = (§1) Cytotoxicity against human MCF7 cells assessed as decrease in cell viability after 24 hrs by MTT assay; type: functional, cell-based; conditions: MCF7, 24 h
MCF7 = experiment: as §1; type: functional, cell-based
Pseudomonas aeruginosa [13] = experiment: Antibacterial activity against Pseudomonas aeruginosa RCMB 010043 after 24 to 48 hrs by agar well diffusion method; type: functional

Row | Structure (SMILES) | MIC (Escherichia coli [1]) | zone of inhibition at 1000 µg/mL (Candida albicans [2]) | MIC (Streptococcus pneumoniae [3]) | MIC (Candida albicans [4]) | zone of inhibition at 1000 µg/mL (Streptococcus pneumoniae [5]) | MIC (Bacillus subtilis [6]) | MIC (Aspergillus fumigatus [7]) | zone of inhibition at 1000 µg/mL (Escherichia coli [8]) | zone of inhibition at 1000 µg/mL (Pseudomonas aeruginosa [9]) | zone of inhibition at 1000 µg/mL (Aspergillus fumigatus [10]) | zone of inhibition at 1000 µg/mL (Bacillus subtilis [11]) | IC50 [12] | Activity (MCF7) | MIC (Pseudomonas aeruginosa [13])
1 | COc1cc(NS(=O)(=O)c2ccc(NC(=S)NN3C(=O)CSC3=S)cc2)nc(OC)n1 | 0.49 µg/mL (≈ 0.979 µM) | 22.3 mm | 0.98 µg/mL (≈ 1.96 µM) | 1.95 µg/mL (≈ 3.9 µM) | 24.3 mm | 0.49 µg/mL (≈ 0.979 µM) | 0.98 µg/mL (≈ 1.96 µM) | 27.2 mm | 14.9 mm | 24.3 mm | 28.1 mm | 47.7 µg/mL (≈ 95.3 µM) | Dose-dependent effect | 62.5 µg/mL (≈ 125 µM)
2 | COc1cc(NS(=O)(=O)c2ccc(NC(=S)Nc3nc4c(OC)cccc4s3)cc2)nc(OC)n1 | 62.5 µg/mL (≈ 117 µM) | 13.2 mm | 7.81 µg/mL (≈ 14.7 µM) | 125 µg/mL (≈ 235 µM) | 17.8 mm | 7.81 µg/mL (≈ 14.7 µM) | 7.81 µg/mL (≈ 14.7 µM) | 16.2 mm | 8.9 mm | 16.4 mm | 18.3 mm | 47.6 µg/mL (≈ 89.4 µM) | Dose-dependent effect | 500 µg/mL (≈ 939 µM)
3 | COc1cc(NS(=O)(=O)c2ccc(NC(=S)Nc3nc(C)cc(C)n3)cc2)nc(OC)n1 |  |  |  |  |  |  |  |  |  |  |  | 82.9 µg/mL (≈ 174 µM) | Dose-dependent effect | 
4 | COc1cc(NS(=O)(=O)c2ccc(NC(=S)Nc3cccc4nsnc34)cc2)nc(OC)n1 | 0.98 µg/mL (≈ 1.95 µM) | 20.4 mm | 1.95 µg/mL (≈ 3.87 µM) | 3.9 µg/mL (≈ 7.74 µM) | 22.7 mm | 0.98 µg/mL (≈ 1.95 µM) | 1.95 µg/mL (≈ 3.87 µM) | 24.2 mm | 11.7 mm | 22.3 mm | 26.3 mm | > 200 µg/mL | Dose-dependent effect | 250 µg/mL (≈ 496 µM)
5 | COc1cc(NS(=O)(=O)c2ccc(NC(=S)Nc3cc(=O)n(C)c(=O)n3C)cc2)nc(OC)n1 | 3.9 µg/mL (≈ 7.68 µM) | 13.8 mm | 7.81 µg/mL (≈ 15.4 µM) | 125 µg/mL (≈ 246 µM) | 17.9 mm | 3.9 µg/mL (≈ 7.68 µM) | 62.5 µg/mL (≈ 123 µM) | 19.1 mm | 8.1 mm | 15.7 mm | 18.5 mm | 96.1 µg/mL (≈ 189 µM) | Dose-dependent effect | 500 µg/mL (≈ 985 µM)
6 | O=C(O)c1cn(C2CC2)c2cc(N3CCNCC3)c(F)cc2c1=O [CIPROFLOXACIN] |  |  | 0.98 µg/mL (≈ 2.96 µM) |  | 22.4 mm | 0.1 µg/mL (≈ 0.302 µM) |  | 25.8 mm | 21.3 mm |  | 27.2 mm |  |  | 
7 | COc1cc(NS(=O)(=O)c2ccc(NC(=S)Nc3cc(C)nc4ccccc34)cc2)nc(OC)n1 | 125 µg/mL (≈ 245 µM) | 14.5 mm | 125 µg/mL (≈ 245 µM) | 125 µg/mL (≈ 245 µM) | 13.9 mm | 125 µg/mL (≈ 245 µM) | 125 µg/mL (≈ 245 µM) | 15 mm | 8.9 mm | 13.7 mm | 14.4 mm | 68.7 µg/mL (≈ 135 µM) | Dose-dependent effect | 500 µg/mL (≈ 979 µM)
8 | CCOc1ccc2nc(NC(=S)Nc3ccc(S(=O)(=O)Nc4cc(OC)nc(OC)n4)cc3)sc2c1 | 7.81 µg/mL (≈ 14.3 µM) | 19.1 mm | 3.9 µg/mL (≈ 7.13 µM) | 7.81 µg/mL (≈ 14.3 µM) | 20.3 mm | 3.9 µg/mL (≈ 7.13 µM) | 7.81 µg/mL (≈ 14.3 µM) | 18.3 mm | 9.2 mm | 18.3 mm | 21.3 mm | > 200 µg/mL | Dose-dependent effect | 500 µg/mL (≈ 915 µM)
9 | C[C@@H]1[C@H](O)[C@@H](C)/C=C/C=C/C=C/C=C/C=C/C=C/C=C/[C@H](O[C@@H]2O[C@H](C)[C@@H](O)[C@H](N)[C@@H]2O)C[C@@H]2O[C@](O)(C[C@@H](O)C[C@@H](O)[C@H](O)CC[C@@H](O)C[C@@H](O)CC(=O)O[C@H]1C)C[C@H](O)[C@H]2C(=O)O [AMPHOTERICIN B] |  | 25.4 mm |  | 3.9 µg/mL (≈ 4.22 µM) |  |  | 1.95 µg/mL (≈ 2.11 µM) |  |  | 23.7 mm |  |  |  | 
10 | O=c1[nH]cc(F)c(=O)[nH]1 [FLUOROURACIL] |  |  |  |  |  |  |  |  |  |  |  | 4.8 µg/mL (≈ 36.9 µM) | Dose-dependent effect | 
11 | COc1cc(NS(=O)(=O)c2ccc(NC(=S)Nc3nnc(C)c(C)n3)cc2)nc(OC)n1 |  |  |  |  |  |  |  |  |  |  |  | 44.8 µg/mL (≈ 94 µM) | Dose-dependent effect | 
12 | COc1cc(NS(=O)(=O)c2ccc(NC(=S)Nc3c(C)n(C)n(-c4ccccc4)c3=O)cc2)nc(OC)n1 |  | 12.6 mm |  |  |  |  |  |  |  | 13.6 mm |  | 113 µg/mL (≈ 203 µM) | Dose-dependent effect | 
13 | COc1cc(NS(=O)(=O)c2ccc(NC(=S)Nc3ccncc3)cc2)nc(OC)n1 | 125 µg/mL (≈ 280 µM) | 13.9 mm | 62.5 µg/mL (≈ 140 µM) | 125 µg/mL (≈ 280 µM) | 15.3 mm | 62.5 µg/mL (≈ 140 µM) | 62.5 µg/mL (≈ 140 µM) | 13.2 mm |  | 15.6 mm | 15.9 mm | 168 µg/mL (≈ 376 µM) | Dose-dependent effect | > 1000 µg/mL
14 | COc1cc(NS(=O)(=O)c2ccc(NC(=S)Nc3ccc4c(c3)oc(=O)c3ccccc34)cc2)nc(OC)n1 |  | 13.1 mm |  |  |  |  |  | 7.8 mm |  | 14.2 mm |  | 40.3 µg/mL (≈ 71.5 µM) | Dose-dependent effect | 
15 | COc1cc(NS(=O)(=O)c2ccc(NC(=S)Nc3nc4ccc([N+](=O)[O-])cc4s3)cc2)nc(OC)n1 | 125 µg/mL (≈ 228 µM) | 10.8 mm | 125 µg/mL (≈ 228 µM) | 250 µg/mL (≈ 457 µM) | 13.3 mm | 125 µg/mL (≈ 228 µM) | 250 µg/mL (≈ 457 µM) | 13.3 mm |  | 11.7 mm | 14.1 mm | 9.43 µg/mL (≈ 17.2 µM) | Dose-dependent effect | > 1000 µg/mL
16 | CCn1c2ccccc2c2cc(NC(=S)Nc3ccc(S(=O)(=O)Nc4cc(OC)nc(OC)n4)cc3)ccc21 |  | 12.1 mm |  |  |  |  |  |  |  | 10.3 mm |  | 143 µg/mL (≈ 254 µM) | Dose-dependent effect | 
17 | CCSc1nnc(NC(=S)Nc2ccc(S(=O)(=O)Nc3cc(OC)nc(OC)n3)cc2)s1 |  | 12.5 mm |  |  |  |  |  |  |  | 14.3 mm |  | 119 µg/mL (≈ 232 µM) | Dose-dependent effect | 
18 | COc1cc(NS(=O)(=O)c2ccc(NC(=S)Nc3cccnc3)cc2)nc(OC)n1 |  |  |  |  |  |  |  |  |  |  |  | 170 µg/mL (≈ 380 µM) | Dose-dependent effect | 
19 | COc1cc(NS(=O)(=O)c2ccc(NC(=S)Nc3nccc4ccccc34)cc2)nc(OC)n1 |  |  |  |  |  |  |  |  |  |  |  | > 200 µg/mL | Dose-dependent effect | 

— ChEMBL document CHEMBL3875150, “Biological evaluation of some new N-(2,6-dimethoxypyrimidinyl) thioureido benzenesulfonamide derivatives as potential antimicrobial and anticancer agents” (Eur J Med Chem, 2016)
